Measurements: US7217710B2, “Substituted pyrazolopyrimidines” (SmithKline Beecham Corporation, priority 2001, dated 2007)

How the values were obtained:
Format in all cases: biochemical
[1] = biological target: T1, GST-TIE2 (intracellular domains of human TIE2) (Homo sapiens, UniProt Q02763); assay: TIE-2 Enzyme Assay (TIE2-E2), LANCE method; conditions: for IC50: read-out: TIE2 PIC50 TIE2-E2 assay
T1 construct: made in house
From the text: TIE-2 Enzyme Assay (TIE2-E2
The TIE-2 enzyme assay uses the LANCE method (Wallac) and GST-TIE2, baculovirus-expressed recombinant constructs of the intracellular domains of human TIE2 (amino acids 762–1104, GenBank Accession # L06139) tagged by GST). The method measures the ability of the purified enzymes to catalyse the transfer of the γ-phosphate from ATP onto tyrosine residues in a biotinylated synthetic peptide, D1–15 (biotin-C6-LEARLVAYEGWVAGKKKamide). This peptide phosphorylation is detected using the following procedure: for enzyme preactivation, GST-TIE2 is incubated for 2 hours at room temperature with 80 μM ATP, 10 mM MgCl2, 0.1 mg/ml BSA, 0.01% Tween 20 and 1 mM DTT in 100 mM HEPES buffer (pH7.4). 5 nM preactivated GST-TIE2 is incubated for 2 hours at room temperature in 96 well plates with 1 uM D1–15 peptide, 80 uM ATP, 10 mM MgCl2, 0.1 mg/ml BSA, 0.01% Tween 20 and titrated test compound (diluted from a 10 mM stock in DMSO, final DMSO concentration is 2.4%) in 100 mM HEPES (pH7.4). The reaction is stopped by the addition of EDTA (final concentration 45 mM). Streptavidin linked-APC (allophycocyanin, PerkinElmer) and europium-labeled anti-phosphotyrosine antibody (PerkinElmer) are then added at the final concentration of 8 nM and 1 nM, respectively. The APC signal is measured using an Wallac Multilabel 1420 counter. (Wallac Berthold Japan). The percent inhibition of activity is calculated relative to blank control wells. The concentration of test compound that inhibits 50% of activity (IC50) is interpolated using nonlinear regression (Levernberg-Marquardt) and the equation, y=Vmax (1−x/(K+x))+Y2, where “K” is equal to the IC50. The IC50 values are converted to pIC50 values, i.e., −log IC50 in Molar concentration.

[2] = biological target: T2, catalytic domain of human VEGFR3 (Homo sapiens, UniProt P35916, H890Q); assay: VEGFR-3 Homogenous Time-Resolved Fluorescence Assay (VEGFR-3-HTRF); conditions: read-out: VEGFR3 PIC50 VEGFR-3-HTRF assay
T2 construct: made in house; host or cells: Sf9 insect cells (baculovirus, pFastBac1)
From the text: VEGFR—3-Homogenous Time-Resolved Fluorescence Assay (VEGFR-3-HTRF)
This assay assesses Vascular Endothelial Growth Factor 3 (VEGFR3) tyrosine kinase inhibitory activity in substrate phosphorylation assays. The assay examines the ability of small molecule organic compounds to inhibit the tyrosine phosphorylation of a peptide substrate.
The substrate phosphorylation assays use the VEGFR3 catalytic domain, which is expressed in Sf. 9 insect cells as an amino-terminal GST-tagged fusion protein. The catalytic domain of human VEGFR3 (AA residues #819–1298 based upon GenBank Accession #XM003852) is cloned by PCR from human Placenta Marathon Ready cDNA (Clontech). The PCR product is subcloned into pFastBac1 vector containing an N-terminal GST tag. The resulting pFB/GST/VEGFR3icd vector is used to generate a recombinant baculovirus for protein expression. The VEGFR3 catalytic domain translated sequence is:
Autophosphorylation allows enzymes to be fully activated prior to addition to peptide substrates. The assays are performed using enzyme that has been activated by autophosphorylation via preincubation in buffer with ATP and magnesium. Activated enzyme is then diluted and added to titrated compound and the substrate mix.
200 nM VEGFR3 enzyme is activated for 45 minutes at room temperature by incubating the enzyme in buffer containing 100 mM HEPES (pH7.2), 75 μM ATP, 0.3 mM DTT, 0.1 mg/mL BSA, and 10 mM MgCl2. After activation, VEGFR3 is diluted 100-fold into 2× dilution buffer: 200 mM HEPES (pH 7.5), 0.2 mg/mL BSA, 0.6 mM DTT. 20 μL of the diluted enzyme mix is added to 20 μL of 2× substrate mix (150 μM ATP, 20 mM MgCl2, 0.72 μM biotinylated peptide) in the assay plates. Final assay conditions are: 100 mM HEPES (pH 7.2), 75 μM ATP, 10 mM MgCl2, 0.1 mg/mL BSA, 0.3 mM DTT, 0.36 μM biotinylated peptide, and 1 nM VEGFR3 enzyme. Assay plates are incubated for 1.5 hours at room temperature before the addition of 30 μL 100 mM EDTA to the wells to stop the enzymatic reaction. 40 μL/well of HTRF mix are then added to the assay plates for the detection of phosphorylated substrate. Final assay concentrations are: 100 mM HEPES (pH7.2), 0.1 mg/mL BSA, 15 nM streptavidin-labeled allophycocyanin (PerkinElmer), and 1 nM europium-labeled anti-phosphotyrosine antibody (PerkinElmer). Assay plates are left unsealed and are counted in a Wallac Multilabel Counter 1420 (PerkinElmer).
The data for dose responses are plotted as % Control calculated with the data reduction formula 100*(U1–C2)/(C1–C2) versus concentration of compound where U is the unknown value, C1 is the average control value obtained for DMSO , and C2 is the average control value obtained for 0.1M EDTA. Data are fitted to the curve described by: y=((Vmax*x)/(K+x)) where Vmax is the upper asymptote and K is the IC50.

GST-VEGFR2 = biological target: T3, GST-VEGFR2 (Homo sapiens, UniProt P35968); assay: VEGF-R2 Enzyme Assay (VEGF-E2), LANCE method
T3 construct: GST-VEGFR2, baculovirus expressed recombinant constructs of the intracellular domains; made in house
T3 sequence (P35968 786-1356 limits assumed): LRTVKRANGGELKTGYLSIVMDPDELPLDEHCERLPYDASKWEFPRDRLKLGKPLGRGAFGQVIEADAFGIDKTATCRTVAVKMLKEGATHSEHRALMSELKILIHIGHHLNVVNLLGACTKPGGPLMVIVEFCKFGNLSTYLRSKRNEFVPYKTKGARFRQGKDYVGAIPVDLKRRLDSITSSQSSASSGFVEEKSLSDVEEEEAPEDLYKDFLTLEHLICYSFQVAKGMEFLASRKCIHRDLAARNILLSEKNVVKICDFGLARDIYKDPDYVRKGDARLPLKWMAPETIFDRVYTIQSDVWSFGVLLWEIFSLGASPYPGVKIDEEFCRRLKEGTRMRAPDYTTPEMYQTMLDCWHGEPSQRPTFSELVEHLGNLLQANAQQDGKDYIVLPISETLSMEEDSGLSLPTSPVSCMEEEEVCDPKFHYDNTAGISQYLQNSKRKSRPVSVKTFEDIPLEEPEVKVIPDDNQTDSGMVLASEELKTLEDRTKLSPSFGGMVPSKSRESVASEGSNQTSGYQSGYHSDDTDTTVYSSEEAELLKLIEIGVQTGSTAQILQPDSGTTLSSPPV

T2 sequence (P35916 with tags, fused parts or gaps isoform P35916-1 H890Q): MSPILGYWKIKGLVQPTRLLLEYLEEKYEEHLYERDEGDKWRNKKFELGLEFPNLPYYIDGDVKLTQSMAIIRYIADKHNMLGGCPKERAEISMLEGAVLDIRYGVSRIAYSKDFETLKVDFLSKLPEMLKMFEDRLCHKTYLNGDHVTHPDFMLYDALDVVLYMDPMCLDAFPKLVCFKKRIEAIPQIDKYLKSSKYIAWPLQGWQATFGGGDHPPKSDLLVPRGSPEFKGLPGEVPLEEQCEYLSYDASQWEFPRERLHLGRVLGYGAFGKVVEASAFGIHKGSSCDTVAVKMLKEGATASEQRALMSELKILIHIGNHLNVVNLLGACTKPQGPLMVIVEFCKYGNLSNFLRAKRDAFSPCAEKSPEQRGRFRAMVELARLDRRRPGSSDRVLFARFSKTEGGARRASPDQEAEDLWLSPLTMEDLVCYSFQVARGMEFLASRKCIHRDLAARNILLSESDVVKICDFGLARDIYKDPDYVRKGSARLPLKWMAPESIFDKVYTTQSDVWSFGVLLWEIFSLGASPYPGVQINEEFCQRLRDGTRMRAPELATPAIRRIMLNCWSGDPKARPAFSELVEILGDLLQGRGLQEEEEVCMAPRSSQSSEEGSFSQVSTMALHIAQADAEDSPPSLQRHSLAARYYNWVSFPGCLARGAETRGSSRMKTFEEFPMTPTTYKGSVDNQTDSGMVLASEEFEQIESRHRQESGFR
T1 sequence (Q02763 762-1104): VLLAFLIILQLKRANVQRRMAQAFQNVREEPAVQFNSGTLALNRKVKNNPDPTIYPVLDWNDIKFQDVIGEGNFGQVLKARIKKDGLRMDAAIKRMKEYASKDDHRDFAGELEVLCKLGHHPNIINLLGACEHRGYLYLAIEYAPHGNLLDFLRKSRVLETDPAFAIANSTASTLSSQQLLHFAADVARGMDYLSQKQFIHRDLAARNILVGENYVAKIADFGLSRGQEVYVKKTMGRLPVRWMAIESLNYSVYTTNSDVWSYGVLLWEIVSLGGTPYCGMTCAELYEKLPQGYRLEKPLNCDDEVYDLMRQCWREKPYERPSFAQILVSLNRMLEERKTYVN

IC50 [1] [µM] | IC50 [2] [µM] | SMILES | also measured
1 to 10 | > 10 | Cn1nc(-c2ccc(NS(=O)(=O)c3cccc(Cl)c3Cl)cc2)c2cnc(NCCCN)nc21 [Example 119, 2,3-Dichloro-N-{4-[1-methyl-6-(3-amino-propylamino)-1H-pyrazolo[3,4-d]pyrimidin-3-yl]-phenyl}-benzenesulfonamide] | 
0.0398 to 0.1 | 0.1 to 1 | Cn1nc(-c2ccc(NC(=O)Nc3cc(C(F)(F)F)ccc3F)cc2)c2cnc(NCCc3ccncc3)nc21 [Example 140, 1-(2-Fluoro-5-trifluoromethyl-phenyl)-3-{4-[(1-methyl-6-(2-pyridin-4-yl-ethylamino)-1H-pyrazolo[3,4-d]pyrimidin-3-yl]-phenyl]} urea] | 
1 to 10 | > 10 | CN1CCN(CCCNc2ncc3c(-c4ccc(NS(=O)(=O)c5cccc(Cl)c5Cl)cc4)nn(C)c3n2)CC1 [Example 111, 2,3-Dichloro-N-(4-{1-methyl-6-[3-(4-methyl-piperazin-1-yl)-propylamino]-1H-pyrazolo[3,4-d]pyrimidin-3-yl]-phenyl}-benzenesulfonamide] | 
 |  | Cn1nc(-c2ccc(NC(=O)Nc3cc(C(F)(F)F)cc(C(F)(F)F)c3)c(F)c2)c2cnc(NCCN3CCOCC3)nc21 [Example 53, 1-(3,5-Bis-trifluoromethyl-phenyl)-3-{2-fluoro-[methyl-(2-morpholin-4-yl-ethylamino)-1H-pyrazolo[3,4-d]pyrimidin-3-yl]-phenyl}-urea] | TIE2 PIC50 TIE2-E2 assay [1]: +++ (+++ = PIC50 = 7.00 to less than 7.40); VEGFR2 PIC50 VEGFR-E2 assay (GST-VEGFR2): + (+ = PIC50 = 5.00 to less than 6.00)
0.1 to 1 | > 10 | Cn1nc(-c2ccc(NC(=O)Nc3cc(C(F)(F)F)ccc3F)cc2)c2cnc(NCCc3cccnc3)nc21 [Example 141] | 
0.1 to 1 |  | Cn1nc(-c2ccc(NC(=O)Nc3cc(C(F)(F)F)ccc3F)cc2)c2cnc(NC(CO)CO)nc21 [Example 83] | IC50 (GST-VEGFR2; read-out: VEGFR2 PIC50 VEGFR-E2 assay): > 10 µM
 |  | Cn1nc(-c2ccc(NC(=O)Nc3cc(C(F)(F)F)cc(C(F)(F)F)c3)cc2)c2cnc(NCCN3CCOCC3)nc21 [Example 41, 1-(Bis-trifluoromethyl-phenyl)-3-{4-[1-methyl-6-(2-morpholin-4-yl-ethylamino)-1H-pyrazolo[3,4-d]pyrimidin-3-yl]-phenyl}-urea] | TIE2 PIC50 TIE2-E2 assay [1]: ++ (++ = PIC50 = 6.00 to less than 7.00); VEGFR2 PIC50 VEGFR-E2 assay (GST-VEGFR2): −− (−− = PIC50 less than 5.00)
≤ 0.0398 | 1 to 10 | Cn1nc(-c2ccc(NC(=O)Nc3cccc(C(F)(F)F)c3)cc2)c2cnc(NCCN3CCOCC3)nc21 [Example 42, 1-{4-[1-Methyl-6-(2-morpholin-4-yl-ethylamino)-1H-pyrazolo[3,4-d]pyrimidin-3-yl]-phenyl}-3-(3-trifluoromethyl-phenyl)-urea] | 
> 10 | > 10 | Cn1nc(-c2ccc(NS(=O)(=O)c3cccc(Cl)c3Cl)cc2)c2cnc(NCCCn3ccnc3)nc21 [Example 116, 2,3-Dichloro-N-{4-[1-methyl-6-(3-imidazol-1-yl-propylamino)-1H-pyrazolo[3,4-d]pyrimidin-3-yl]-phenyl}-benzenesulfonamide] | 
0.0398 to 0.1 |  | CCc1cccc(NC(=O)Nc2ccc(-c3nn(C)c4nc(NCCN5CCOCC5)ncc34)cc2)c1 [Example 38, 1-(3-Ethyl-phenyl)-3-{4-[1-methyl-6-(2-morpholin-4-yl-ethylamino) -1H-pyrazolo[3,4-d]pyrimidin-3-yl]-phenyl}-urea] | 
0.1 to 1 |  | Cc1cc(-c2nn(C)c3nc(NCCN4CCOCC4)ncc23)ccc1NC(=O)Nc1cc(C(F)(F)F)cc(C(F)(F)F)c1 [Example 47, 1-(Bis-trifluoromethyl-phenyl)-3-{methyl-[methyl-(2-morpholin-4-yl-methylamino)-1H-pyrazolo[3,4-d]pyrimidin-3-yl]-phenyl}-urea] | 
> 10 | 1 to 10 | CC(=O)NCCNc1ncc2c(-c3ccc(NS(=O)(=O)c4cccc(Cl)c4Cl)cc3)nn(C)c2n1 [Example 115, 2,3-Dichloro-N-{4-[1-methyl-6-(2-acetylamino-ethylamino)-1H-pyrazolo[3,4-d]pyrimidin-3-yl]-phenyl}-benzenesulfonamide] | 
0.1 to 1 |  | Cn1nc(-c2ccc(NC(=S)Nc3cccc(C(F)(F)F)c3)cc2)c2cnc(NCCN3CCOCC3)nc21 [Example 36, 1-{4-[1-Methyl-6-(2-morpholin-4-yl-ethylamino)-1H-pyrazolo[3,4-d]pyrimidin-3-yl]-phenyl}-3-(3-trifluoromethyl-phenyl)-thiourea] | 
 |  | Cn1nc(-c2ccc(NC(=O)Nc3cc(C(F)(F)F)ccc3F)cc2)c2cnc(Nc3cccc(Cl)c3)nc21 [Example 63] | TIE2 PIC50 TIE2-E2 assay [1]: ++ (++ = PIC50 = 6.00 to less than 7.00)
 | 1 to 10 | Cn1cccc1CCNc1ncc2c(-c3ccc(NS(=O)(=O)c4cccc(Cl)c4Cl)cc3)nn(C)c2n1 [Example 117, 2,3-Dichloro-N-(4-{1-methyl-6-[2-(1-methyl-1H-pyrrol-2-yl)ethylamino]-1H-pyrazolo[3,4-d]pyrimidin-3-yl]-phenyl}-benzenesulfonamide] | 
≤ 0.0398 |  | CCN(CC)CCCNc1ncc2c(-c3ccc(NC(=O)Nc4cc(C(F)(F)F)ccc4F)c(F)c3)nn(C)c2n1 [Example 129] | 
> 10 |  | Cn1nc(-c2ccc(NS(=O)(=O)c3cccc(Cl)c3Cl)cc2)c2cnc(NCCCCN3CCCC3)nc21 [Example 110, 2,3-Dichloro-N-{4-[1-methyl-6-(4-pyrrolidin 1-yl-butylamino)-1H-pyrazolo[3,4-d]pyrimidin-3-yl]-phenyl}-benzenesulfonamide] | 
1 to 10 | > 10 | Cn1nc(-c2ccc(NS(=O)(=O)c3cccc(Cl)c3Cl)cc2)c2cnc(NCCCCNC(=N)N)nc21 [Example 121, 2,3-Dichloro-N-{4-[1-methyl-6-(4-guanidino-butylamino)-1H-pyrazolo[3,4-d]pyrimidin-3-yl]-phenyl}-benzenesulfonamide] | 
> 10 |  | Cn1nc(-c2ccc(NS(=O)(=O)c3cccc(Cl)c3Cl)cc2)c2cnc(NC(CO)CO)nc21 [Example 118, 2,3-Dichloro-N-{4-[1-methyl-6-(2-hydroxy-1-hydroxymethyl-ethylamino)-1H-pyrazolo[3,4-d]pyrimidin-3-yl]-phenyl}-benzenesulfonamide] | 
≤ 0.0398 |  | CC1CCCCN1CCCNc1ncc2c(-c3ccc(NC(=O)Nc4cc(C(F)(F)F)ccc4F)c(F)c3)nn(C)c2n1 (centres unmarked) [Example 128] | 
1 to 10 |  | CCNc1ncc2c(-c3ccc(NC(=O)Nc4ccc(C(F)(F)F)cc4F)cc3)nn(C)c2n1 [Example 162] | 
